Test results published in patent US20140255321A1, “Active Sunscreen Composition” (Rhode Island Hospital, priority 2008, published 2014).

System: Normal Human Dermal Fibroblast cells
Assay: CometAssay of DNA damage in dermal fibroblasts exposed to a solar simulator under a protective layer
Type: cell-based
Details: for Comet tail appearance / extent of DNA damage (in words): SYBR I Green visualisation after electrophoresis 25 minutes at 20 volts, FIGS. 2 and 3; for Comet tail appearance / extent of DNA damage (in words) / Integral of Student's Probability Density for Tail Length/Total Length: disodium salt
Text: Using a model for human skin (confluent human dermal fibroblasts, Lonza CC-2511), a fluorescent dye was used to evaluate induction of […]. Stilbene-420 was selected for having a broad range of absorption in the UVB and UVA ranges while retaining a relatively narrow emission spectrum centered around 420 nm. A 2% solution of stilbene in water was used for this study.
Stilbene-420 was compared to both unshielded cells and commercial SPF 45 sunblock in their ability to protect Normal Human Dermal Fibroblast cells raised on Lonza FGM-2 media from exposure to the full power of a solar simulator. A CometAssay was used to assess DNA damage to the cells. The resulting data was filtered and analyzed with an Integral of Student's Probability Density.
Using Fibroblast Grown Medium with 10% FBS, normal Human Dermal Fibroblasts (obtained from Lonza Clonetics) were grown to confluence in a 12-well plate. After 6 days, one of the wells was harvested by scraping and stored at 4° C. Using custom aluminum holders, a UV-transparent quartz window was placed above each well, and space between the window and holder sealed with 5% agarose. The windows were then covered with 0.5 mL of 0.5% Stilbene 420 florescent dye in water, commercial SPF 45 sunblock or left alone. Then, the plate was exposed to a Solar Simulator for 22.5 minutes at full intensity. Afterwards, the cells were harvested by scraping and all the cells were suspended in low-melting point for the CometAssay using a kit produced by Trevigen. Though the results of DNA damage are often easy to see, for example, cell death, quantifying the extent to which this damage has occurred can be difficult. The CometAssay is a test measures fairly low levels of DNA Damage. The basic concept of the test is that, given more incipient DNA damage that is dealt, the more fragments of DNA are created and the smaller they become. By embedding the cells in a low melting point agarose gel and lysing them, release of these DNA fragments occurs without inducing further damage. A simple gel electrophoresis process causes the fragments to begin to migrate out of the lysed cells. As smaller fragments move faster, a comet-like tail develops, which can be visualized by using a dye like SYBR1 Green. The relative size, intensity and length of this tail are directly related to the amount of DNA damage a cell has received.
After lysing the cells and running them on an electrophoresis apparatus for 25 minutes at 20 volts, the DNA fragment “tails” were visualized with SYBR I Green dye under a microscope using a 492 nm laser and stored (FIGS. 2a.-c.). Using a MatLAB script, the images were filtered by their intensity to isolate individual cells (FIG. 3). […] This is indicative of damaged DNA which forms a heterogeneous population of DNA strand lengths.
Each cell was measured by the width of the “core,” where the larger, less-damaged pieces of DNA remained, and the length of the “tail” produced from the migration of the smaller fragments. These values were compared in several ratios and a Student t-test was performed (Table 1). From those t-values an Integral of Student's Probability Density was calculated assuming an unequal variance between the different protections. This latter value determines the probability that the data comes from the same population as the control data. For the sunblock-protected cells, there is just an 11% chance when comparing the ratio of tail length to total length of the “comet” to the same ratio for the control. For the unprotected cells, the probability drops to just 4.7%. But, for the dye-protected cells, there was a 96.6% came from the same population, indicating the dye provided the best protection, keeping the cells closest to their original state.

[1] = Student t-test vs unexposed control cells, Solar Simulator 22.5 minutes at full intensity
[2] = probability that data come from the same population as the control, unequal variance assumed

O=S(=O)([O-])c1ccccc1C=Cc1ccc(-c2ccc(C=Cc3ccccc3S(=O)(=O)[O-])cc2)cc1.[Na+].[Na+] [Stilbene 420, 2,2″-([1,1′-biphenyl]-4.4′-dyldi-2,1-ethenediyl)bis-benzenesulfonic acid disodium salt]
Comet tail appearance / extent of DNA damage (in words): narrower, shorter tail | Comet tail appearance / extent of DNA damage (in words) (listed as stillbene): do not form tails | Tail Length/Core Width T-Value [1]: 0.2257 | Tail Length/Total Length T-Value [1]: 0.0437 | Difference T-value (Student t-test vs unexposed control cells, comet tail/core measures, Solar Simulator 22.5 minutes at full intensity): 0.1870 | Integral of Student's Probability Density for Difference [2]: 85.83% | Integral of Student's Probability Density for Tail Length/Core Width [2]: 82.7% | Integral of Student's Probability Density for Tail Length/Total Length [2]: 96.63% | Integral of Student's Probability Density for Tail Length/Total Length (probability that data come from the same population as the control, unequal variance assumed, listed as dye): 96.6% | Greater chance of being from the same population of unexposed cells than the sunblock protected cells (statistical comparison of Stilbene-protected vs sunblock-protected cells): more than a forty percent greater chance
